Results as given in patent US20090220516A1, “Neuroprotection of retinal ganglion cells” (priority 2005, published 2009).
Values joined by “and” are separate entries in the source; they are usually repeats but may differ in a detail not shown here. Equal entries are not always repeated.

Assays:
[1] = test system: isolated retinal ganglion cells; experiment: Intracellular Ca2+ measurements: BzATP-triggered Ca2+ elevation in isolated (immunopanned) retinal ganglion cells; type: cell-based, rat; settings: 50 μM BzATP 15 sec, purified ganglion cells
Description: (§1) Unlabeled RGCs grown on coverslips for 24 hrs were loaded with 10 μM fura-2 and 2% pluoronic (Molecular Probes, Eugene, Oreg.) for 60-90 min at room temperature, rinsed and maintained in fura-2-free solution for 30 min before data acquisition began. The coverslips were mounted on a Nikon Diaphot inverted microscope and visualized with a 40× objective. […] To obtain Ca^2+ measurements, the field was alternatively excited at 340 nm and 380 nm with a scanning monocrometer and the fluorescence emitted >520 nm from a region of interest surrounding individual retinal ganglion cells was imaged with a CCD camera and analyzed (all Photon Technologies International, Inc., Lawrenceville, N.J.). Cells were perfused with a control solution at the start of Ca^2+imaging experiments containing (in mM) 105 NaCl, 4.5 KCl, 2.8 NaHepes, 7.2 Hepes acid, 1.3 CaCl2, 0.5 MgCl2, 5 glucose, 75 mannitol, pH 7.4. Drugs were dissolved into the control solution. Calibration was performed separately on each cell after the experiment by perfusing cells in the presence of 5 μM ionomycin and control solution (with 1.3 mM Ca2+) followed by ionomycin in the base solution without Ca^2+ and with the addition of 5 mM EGTA (pH 7.4). The 340/380 ratio was converted to Ca^2+ concentration as previously described. All experiments were performed at room temperature.
(§2) Purification of ganglion cells using the panning procedure is based upon published methods (Hartwick et al., 2004). Neonatal rat retinas (PD 7-12) were dissected and incubated at 37° C. for 30 min in HBSS containing 15 U/mL papain, 0.2 mg/mL DLcysteine and 0.004% DNAse I (Worthington/Cooper, Lakewood, N.J.). The tissue was triturated in HBSS with 1.5 mg/ml ovomucoid (Worthington/Cooper, Lakewood, N.J.), 1.5 mg/ml BSA and 0.004% DNase I, centrifuged at 200 g for 11 minutes at room temperature, and cells were rewashed with 10 mg/ml ovomucoid-BSA solution. After centrifugation, cells were resuspended with PBS containing 0.2 mg/ml BSA and 5 μg/ml insulin and filtered through a Nitex mesh (Small Parts Inc, Miami Lakes, Fla.). […]

retinal ganglion cells [2] = experiment: Cell viability studies: labeled retinal ganglion cells surviving after 24 hrs in mixed retinal cultures; type: cell-based, rat; settings: for reduction in the number of dead cells / protection against cell death triggered by BzATP: 50 uM BzATP + 100 nM A3 agonist
Description: (§3) Pups PD2-6 from untimed pregnant Long-Evan rats (Jackson Laboratory Inc., Bar Harbor, Me.) were back-labeled by the injection of FluoroGold derivative aminostilbamidine (Molecular Probes, Eugene, Oreg.) based upon standard protocols. […] Using a Hamilton syringe affixed to a micromanipulator, a needle was inserted 0.8 mm lateral from the midline and 0.8 mm anterior to Bregma's line and a total of 2.5 μl dye was delivered to each side at a depth of 2 mm and 1 mm. The needle was retracted after a delay of 2 min to allow dye absorption and the wound was closed with 2-3 sutures. Preliminary examination of labeled retinal whole mounts confirmed an even distribution of dye, showing all cells were stained 2 days after injection, with no further increase in the number of labeled cells in subsequent days. Consequently, retinas containing labeled ganglion cells were dissociated 2-6 days after injection. Animals were sacrificed by i.p. injection of 50/5 mg/kg Ketamine/Xylazine followed by an overdose, in accordance with University of Pennsylvania IACUC approved protocols and the ARVO Statement on the Use of Animals in Ophthalmic and Vision Research.
The retina was dissected from each globe, washed in sterile Hanks' balanced salt solution (HBSS, Gibco, Inc Invitrogen Corp., Carlsbad, Calif.), then incubated in HBSS containing activated papain (4.5 U/ml; Worthington Biochemical Corp., Lakewood, N.J.) for 12 minutes at 37° C. Retinas were washed twice and triturated 50 times with a 1-ml glass pipette to dissociate cells. Cells were plated onto twelve 12-mm coverslips previously coated with poly-L-lysine. […] Retinal cells were incubated at 37° C. with 5% CO2.
Drugs were added to the culture medium at the time when cells were plated onto coverslips. […] All counts were performed in a masked fashion. In experiments involving antagonist pretreatment, drugs were added to the medium at the time of plating. After preincubation at 37° C., stock concentrations of BzATP were added directly to the cells to give the final concentration shown.
Data are presented as mean±standard error of the mean. Significance was evaluated using a Student's unpaired t test, with a p value <0.05 signifying significance. For cell viability studies, the number of experiments, n, represents the number of coverslips from which 80 fields were measured and averaged. All values were normalized to the mean control level for that day's matched set of experiments to control for variation in plating efficiency.

retinal ganglion cells [3] = experiment: Intracellular Ca2+ measurements (fura-2): BzATP-triggered Ca2+ elevation in ganglion cells from mixed retinal cultures; type: cell-based, rat
Description: as §3
The retina was dissected from each globe, washed in sterile Hanks' balanced salt solution (HBSS, Gibco, Inc Invitrogen Corp., Carlsbad, Calif.), then incubated in HBSS containing activated papain (4.5 U/ml; Worthington Biochemical Corp., Lakewood, N.J.) for 12 minutes at 37° C. Retinas were washed twice and triturated 50 times with a 1-ml glass pipette to dissociate cells. Cells were plated onto twelve 12-mm coverslips previously coated with poly-L-lysine. The basic growth medium contained Neurobasal medium with 2 mM glutamine, 100 μg/ml gentamicin, 0.025 ml/ml B27 supplement (all Invitrogen Inc., Carlsbad, Calif.), 0.7% methylcellulose (Stemcell Technologies Inc., Vancouver, BC, Canada) and 2.5% rat serum (Cocalico Biologicals Inc., Reamstown, Pa.). Retinal cells were incubated at 37° C. with 5% CO2.
as §1
In Ca^2+ experiments, n refers to the number of responses tested. The BzATP concentration-response curve was fit with a standard exponential function y=y0+ae(−bx) using Sigmaplot software (SPSS Inc, Chicago, Ill.). The % block of Ca2+ elevations is defined as 100*(a−b)/a, where a is the response under control conditions and b is the response under experimental conditions. All materials are from Sigma Chemical Corp, (St. Louis, Mo.) unless otherwise indicated.

isolated ganglion cells = experiment: Glutamate release from isolated ganglion cells (GDH/NADH fluorescence); type: cell-based, rat
Description: as §2
The measurement of glutamate was analogous to that used previously by the Haydon laboratory. […] NADH fluorescence is excited using a xenon arc lamp (100 watts) with a D360/10x exciter filter (Chroma Technology Corp., Brattleboro, Vt.), 510DRLP dichroic mirror (Omega Optical, Brattleboro, Vt.), and 515EFLP emission filter (Omega Optical). Images collected before, during and after the BzATP stimulus indicate the level of fluorescence. The percent increase in fluorescence, figured by dividing the change in fluorescence (ΔF) by the fluorescence level before stimulation (F0), represents the level of glutamate release. […]

human A2B receptors = molecular target: T1, human A2B receptors (Homo sapiens, UniProt P29275); settings: cited from earlier work
T1 sequence (P29275 1-332): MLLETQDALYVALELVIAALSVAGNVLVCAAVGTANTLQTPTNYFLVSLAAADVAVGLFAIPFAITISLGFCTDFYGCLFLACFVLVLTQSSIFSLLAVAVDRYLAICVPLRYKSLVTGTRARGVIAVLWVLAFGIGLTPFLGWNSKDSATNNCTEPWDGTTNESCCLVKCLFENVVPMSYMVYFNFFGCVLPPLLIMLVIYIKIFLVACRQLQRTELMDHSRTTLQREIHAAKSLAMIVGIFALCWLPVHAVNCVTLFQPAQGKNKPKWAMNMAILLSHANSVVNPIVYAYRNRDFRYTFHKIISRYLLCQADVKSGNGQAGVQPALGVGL

[4] = 50 uM BzATP + 100 nM A3 agonist (30 min before and during), 24 hrs

In the case of `N[C@@H](CCCP(=O)(O)O)C(=O)O` [APV, D-amino-phosphonovalerate], the “block of Ca2+ response to BzATP” value ([1]; 100 μM APV) is reported as 36.1±7.5%, the “ganglion cell survival levels” value (retinal ganglion cells [2]; 50 μM BzATP + APV, 24 hrs) is reported as 77.8±5.9% and the “mean reduction of Ca2+ elevation triggered by BzATP” value (retinal ganglion cells [3]; APV (100 μM in FIG. 2C, 300 μM in summary), 50 μM BzATP 15 sec) is reported as 39.7±12.6%.
For `Nc1ncnc2c1ncn2[C@@H]1O[C@H](COP(=O)(O)OP(=O)(O)OP(=O)(O)O)[C@@H](OC(=O)c2ccc(C(=O)c3ccccc3)cc2)[C@H]1O` [BzATP], the “increase in absorbance at 360 nm (glutamate release)” value (isolated ganglion cells; BzATP alone, 17 applications from 7 coverslips) was 17.1±4.0%, the “ganglion cell survival, % of control” value (retinal ganglion cells [2]; 50 μM BzATP alone, 24 hrs) was 62.9 % of control and 68.9±2.3 % of control and 56.8 % of control and 79.0±2.9 % of control and the “mean levels of Ca2+” value (retinal ganglion cells [3]; first exposure to 50 μM BzATP alone, 15 sec) was 647.0 ± 80.7 nM. For the same compound, the “mean levels of Ca2+” value (retinal ganglion cells [3]; third exposure to BzATP after removal of CI-IB-MECA) was 600.3 ± 227.6 nM.
In the case of `CNC(=O)C1OC(n2cnc3c(NCc4cccc(I)c4)nc(Cl)nc32)C(O)C1O` (stereo not shown) [CI-IB-MECA, 2-chloro-N6-(3-iodobenzyl)-adenosine-5-N-methyluronamide], the Kd (human A2B receptors) is listed as greater than 100 µM, the “ganglion cell survival, % of control” value (retinal ganglion cells [2]; [4]) is listed as 80.1±4.7 % of control and the “reduction in the number of dead cells / protection against cell death triggered by BzATP” value (retinal ganglion cells [2]; 24 hrs) is listed as 54%. The “block of Ca2+ increase, normalized to peak of first response” value (retinal ganglion cells [3]; 100 nM CI-IB-MECA, 50 μM BzATP 15 sec) was 81% and the “mean levels of Ca2+” value (retinal ganglion cells [3]; second BzATP application in presence of 100 nM CI-IB-MECA) was 110.7 ± 32.8 nM.
For `CNC(=O)[C@H]1O[C@@H](n2cnc3c(NCc4cccc(I)c4)ncnc32)[C@H](O)[C@@H]1O` [IB-MECA], the “ganglion cell survival, % of control” value (retinal ganglion cells [2]; [4]) was 98.5±2.7 % of control and the “reduction in the number of dead cells / protection against cell death triggered by BzATP” value (retinal ganglion cells [2]; 24 hrs) was 95%.
With `C[C@]12N[C@H](Cc3ccccc31)c1ccccc12` [MK-801] the “decrease of Ca2+ elevation triggered by BzATP” value ([1]; 10 μM MK-801) was 50.1±5.5%, the “ganglion cell survival, % of control” value (retinal ganglion cells [2]; 50 μM BzATP + 10 μM MK-801, 24 hrs) was 102.7±3.2 % of control and the “decrease of Ca2+ elevation triggered by BzATP” value (retinal ganglion cells [3]; 10 μM MK-801, 50 μM BzATP 15 sec, peak vs mean response before and after) was 55.1±6.5%.
With `CN[C@H](CC(=O)O)C(=O)O` [NMDA, N-methyl-D-aspartate] the “ganglion cell survival, % of control” value (retinal ganglion cells [2]; 100 uM NMDA alone, 24 hrs) was 69.9±3.2 % of control.
In the case of `Nc1ncnc2c1ncn2[C@@H]1O[C@H](CO)[C@@H](O)[C@H]1O` [adenosine], the ganglion cell survival (retinal ganglion cells [2]; 50 μM BzATP + 300 uM adenosine (30 min before), 24 hours) is reported as 91.2±3.5%, the “ganglion cell survival, % of control” value (retinal ganglion cells [2]; 50 μM BzATP + 1 mM adenosine, 24 hours) is reported as 92.4±2.5 % of control and the “ganglion cell counts, % of control” value (retinal ganglion cells [2]; 100 uM NMDA + 300 uM adenosine, 24 hrs) is reported as 102.1±3.9 % of control. The “block of Ca2+ increase compared to BzATP alone” value (retinal ganglion cells [3]; 300 uM adenosine, two minute 50 uM BzATP) was 85%, the “effect on Ca2+ response to brief 50 uM BzATP” value (retinal ganglion cells [3]; adenosine added with alternate BzATP applications, reversible, repeatable) was “greatly reduced the response” and the “peak Ca2+ levels” value (retinal ganglion cells [3]; two minute application of 50 uM BzATP in presence of 300 uM adenosine (2 min pretreatment), n=7) was 215 ± 62 nM.
For `CCOc1ccc(Nc2ccc(/C(=C3C=C/C(=[N+](/CC)Cc4cccc(S(=O)(=O)[O-])c4)C=C/3C)c3ccc(N(CC)Cc4cccc(S(=O)(=O)[O-])c4)cc3C)cc2)cc1.[Na+]` [brilliant blue G], the “net absorbance change (glutamate release) in response to BzATP” value (isolated ganglion cells; in presence of brilliant blue G, n=3) was −0.9±0.9%.
For `CC12CC3CC(C)(C1)CC(N)(C3)C2` [memantine], the inhibition at 30 µM ([1]; Rattus norvegicus, 30 μM memantine, read-out: inhibition of Ca2+ response to BzATP) was 18.4 ± 4.2%, the “effect on ganglion cell survival” value (retinal ganglion cells [2]; 50 μM BzATP + 100 μM memantine, 24 hrs) was “neuroprotective” and the “reduction of Ca2+ elevation triggered by BzATP” value (retinal ganglion cells [3]; 30 μM memantine, in 4/7 experiments, effect variable, 50 μM BzATP) was 65.5±6.7%.
